{
  "source": "patent US20150141518A1",
  "about": "“WATER-MISCIBLE STABLE SOLUTION COMPOSITION FOR PHARMACEUTICALLY ACTIVE INGREDIENTS THAT ARE POORLY SOLUBLE IN WATER AND SUSCEPTIBLE TO CHEMICAL DEGRADATION” (Emphascience, Inc., priority 2013, published 2015)",
  "origin": "cited, not measured here",
  "key": {"[1]": {"conditions": "accelerated at extremes of pH and higher temperatures"}, "[2]": {"conditions": "room temperature"}},
  "data": [
    {"smiles": "CC(=O)Nc1ccc(O)cc1", "note": "[paracetamol]", "values": [
      {"measurement": "overall rate of chemical degradation of paracetamol in solution", "setting": "[1]", "value": "first order kinetics"},
      {"measurement": "solubility of paracetamol in water", "setting": "[2]", "value": "ca. 13 mg/mL"}
    ]}
  ]
}
